From patent publication US20250179103A1, “6-OXODECAHYDROPYRROLO[1,2-A][1,5]DIAZOCINE AND 6-OXODECAHYDRO-4H-PYRROLO[2,1-D][1,5]THIAZOCINE DERIVATIVES AS STAT3 AND STAT6 MODULATORS FOR THE TREATMENT OF CANCER AND INFLAMMATORY CONDITIONS” (Recludix Pharma, Inc., priority 2022, published 2025) come the findings set out here.

Experiment [1] concerns pY705-STAT3 in Peripheral Blood Mononuclear Cells (PBMC). Description: MSD-pSTAT-PBMC Assay (pSTAT3, IL-6 stimulated). Conditions: Homo sapiens, compound 3 hrs, then 10 ng/mL IL-6 for 10 min. Type of experiment: cell-based, Human. From the text:
Cryopreserved Peripheral Blood Mononuclear Cells (PBMC) are from AllCells. Recombinant Human IL-4 and IL-6 are from Peprotech. Mouse monoclonal anti-STAT3 antibody, rabbit monoclonal anti-pY705-STAT3 antibody, rabbit monoclonal Anti-pY641-STAT6 antibody, and lysis buffer are from Cell Signaling Technology (CST). Mouse monoclonal anti-STAT6 antibody is from BioLegend. Assay plates, blocker, and anti-rabbit secondary antibody are from Meso Scale Discovery (MSD).
Cryopreserved PBMCs were thawed out and allowed to recover overnight in IMDM+10% heat-inactivated FBS prior to plating 50,000 (STAT3) or 25,000 (STAT6) cells per well in 96-well U-bottom tissue culture plates. Cells were treated with compound for 3 hrs, then stimulated with 10 ng/mL IL-6 (STAT3) or 1 ng/mL IL-4 (STAT6) for 10 min. Cells were then spun down and washed with ice-cold PBS prior to lysing the cell pellet with 1× lysis buffer (CST) with 1×HALT protease and phosphatase inhibitor cocktail (Thermo). Lysates were transferred to and incubated overnight at 4° C. with shaking in QuickPlex 96-well high bind assay plates (MSD) pre-coated overnight with 30 μL per well of 0.6 μg/mL mouse monoclonal anti-STAT3 antibody (STAT3) or 2 μg/mL mouse monoclonal anti-STAT6 antibody (STAT6) in 1×PBS, and pre-blocked for 1 hour with 3% Blocker-A (MSD). Captured protein in the assay plates were then washed and probed with 25 μL per well of 0.25 μg/ml rabbit monoclonal anti-pY705-STAT3 antibody (STAT3) or […] rabbit monoclonal Anti-pY641-STAT6 antibody (STAT6) in 1% Blocker-A for 1 hour at room temperature with shaking, then washed and probed with 25 ul per well of 1 ug/ml Sulfo-TAG Labeled Goat Anti-Rabbit Antibody (MSD) in 1% Blocker-A for 1 hour at room temperature with shaking. Assay plates were then washed and 150 μL of 1× Read Buffer-T (MSD) was added to each well prior to reading on an SQ120 MSD Plate Reader. Assay signal from each sample was subtracted by the signal from unstimulated control wells and normalized to DMSO control wells. IC50 values were calculated using Graph Pad Prism Dose-Response Nonlinear Regression with variable slope. For both pSTAT3 and pSTAT6 A=≤100 nM; B=>100-1000 nM; C=>1000-3000 nM; and D=>3 μM.

Experiment [2] relates to pY641-STAT6 in Peripheral Blood Mononuclear Cells (PBMC). Description: MSD-pSTAT-PBMC Assay (pSTAT6, IL-4 stimulated). The format is cell-based, Human. Conditions: Homo sapiens, compound 3 hrs, then 1 ng/mL IL-4 for 10 min. Put shortly:
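Human PBMCs were preincubated 3 h with compound, then stimulated 10 min with 10 ng/mL IL-6 (pY705-STAT3) or 1 ng/mL IL-4 (pY641-STAT6). Lysates were read by MSD sandwich immunoassay, capturing total STAT and detecting phospho-STAT. Signal was unstimulated-subtracted and DMSO-normalised, with variable-slope IC50 binned A–D.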

The structures appear in SMILES notation. Bounds are passed on as bounds.

For orientation: IC50 means the concentration that inhibits the measured activity by half.

For the compound `CC(=O)N1CC[C@H]2CC[C@@H](C(=O)N3C[C@@H](C#N)[C@H](c4ccccc4)C3)N2C(=O)[C@@H](NC(=O)c2cc3cc(C(F)(F)P(=O)(OCOC(=O)OC(C)C)OCOC(=O)OC(C)C)ccc3s2)C1` (single isomer, unassigned) [Compound 282, ((((2-(((5S,8S, 10aR)-3-acetyl-8-((3S,4R or 3R,4S)-3-cyano-4-phenyl-pyrrolidine-1-carbonyl)-6-oxodecahydro-pyrrolo[1,2-a][1,5]diazocin-5-yl)carbamoyl)benzo[b]thiophen-5-yl)difluoro-methyl)phos-phoryl)bis(oxy)) bis(methylene) diisopropyl bis(carbonate)], the figures for the IC50 in experiment [1] and in experiment [2] were 1 to 3 µM and at most 0.1 µM, respectively.

With `CC(=O)N1CC[C@H]2CC[C@@H](C(=O)N3C[C@H](c4ccccc4)[C@@H](C#N)C3)N2C(=O)[C@@H](NC(=O)c2cc3cc(C(F)(F)P(=O)(OCOC(=O)OC(C)C)OCOC(=O)OC(C)C)ccc3s2)C1` (single isomer, unassigned) [Compound 285, ((((2-(((5S,8S, 10aR)-3-acetyl-8-((3R,4S or 3S,4R)-3-cyano-4-phenyl-pyrrolidine-1-carbonyl)-6-oxodecahydro-pyrrolo[1,2-a][1,5]diazocin-5-yl)carbamoyl)benzo[b]thiophen-5-yl)difluoro-methyl)phos-phoryl)bis(oxy)) bis(methylene) diisopropyl bis(carbonate)], the IC50 is 0.1 to 1 µM in experiment [1] and at most 0.1 µM in experiment [2].

Consider `CCCC(=O)SCCOP(=O)(OCOC(=O)OC(C)C)C(F)(F)c1ccc2ccc(C(=O)N[C@H]3CN(C(C)=O)CC[C@H]4CC[C@@H](C(=O)N5C[C@H](c6cc[nH]c(=O)c6)[C@@H](C#N)C5)N4C3=O)cc2c1` (single isomer, unassigned) [Compound 303, S-(2-((((7-(((5S,8S, 10aR)-3-acetyl-8-((3R,4S or 3S,4R)-3-cyano-4-(2-oxo-1,2-dihydro-pyridin-4-yl)pyrrolidine-1-carbonyl)-6-oxodecahydro-pyrrolo[1,2-a][1,5]diazocin-5-yl)carbamoyl)naphthalen-2-yl)difluoro-methyl)(((iso-propoxy-carbonyl)oxy)methoxy)phosphoryl)oxy)ethyl) butanethioate], for which the IC50 in experiment [1] fell in the range of 1 to 3 µM; in experiment [2], 0.1 to 1 µM.

On to `CCCC(=O)SCCOP(=O)(OCCSC(=O)CCC)C(F)(F)c1ccc2ccc(C(=O)N[C@H]3CN(C(C)=O)CC[C@H]4CC[C@@H](C(=O)N5C[C@H](c6cc[nH]c(=O)c6)[C@@H](C#N)C5)N4C3=O)cc2c1` (single isomer, unassigned) [Compound 304, S,S′-(((((7-(((5S,8S, 10aR)-3-acetyl-8-((3R,4S or 3S,4R)-3-cyano-4-(2-oxo-1,2-dihydro-pyridin-4-yl)pyrrolidine-1-carbonyl)-6-oxodecahydro-pyrrolo[1,2-a][1,5]diazocin-5-yl)carbamoyl)naphthalen-2-yl)difluoro-methyl)phos-phoryl)bis(oxy))bis(ethane-2,1-diyl))di-butanethioate], for which the IC50 in experiment [1] is above 3 µM; in experiment [2], 0.1 to 1 µM.

As to `CC(=O)N1CC[C@H]2CC[C@@H](C(=O)N3C[C@@H](C#N)[C@H](c4cc[nH]c(=O)c4)C3)N2C(=O)[C@@H](NC(=O)c2ccc3ccc(C(F)(F)P(=O)(OCCSC(=O)CC(C)C)OCCSC(=O)CC(C)C)cc3c2)C1` (single isomer, unassigned) [Compound 306, S,S′-(((((7-(((5S,8S, 10aR)-3-acetyl-8-((3S,4R or 3r,4S)-3-cyano-4-(2-oxo-1,2-dihydro-pyridin-4-yl)pyrrolidine-1-carbonyl)-6-oxodecahydro-pyrrolo[1,2-a][1,5]diazocin-5-yl)carbamoyl)naphthalen-2-yl)difluoro-methyl)phos-phoryl)bis(oxy))bis(ethane-2,1-diyl)) bis(3-methylbutane-thioate)], the IC50 was above 3 µM in experiment [1] and 1 to 3 µM in experiment [2].

`CCN1CC[C@H]2CC[C@@H](C(=O)N3C[C@@H](C#N)[C@H](c4ccccc4)C3)N2C(=O)[C@@H](NC(=O)c2cc3cc(C(F)(F)P(=O)(OCCSC(=O)C(C)(C)C)OCCSC(=O)C(C)(C)C)ccc3s2)C1` (single isomer, unassigned) [Compound 330, S,S′-(((((2-(((5S,8S,10aR)-8-((3S,4R or 3R,4S)-3-cyano-4-phenylpyrrolidine-1-carbonyl)-3-ethyl-6-oxodecahydropyrrolo[1,2-a][1,5]diazocin-5-yl)carbamoyl)benzo[b]thiophen-5-yl)difluoromethyl)phosphoryl)bis(oxy))bis(ethane-2,1-diyl)) bis(2,2-dimethylpropanethioate)]: the IC50 in experiment [1] and in experiment [2] was 1 to 3 µM throughout.

For the compound `CCN1CC[C@H]2CC[C@@H](C(=O)N3C[C@@H](C#N)[C@H](c4ccccc4)C3)N2C(=O)[C@@H](NC(=O)c2cc3cc([C@H](F)P(=O)(OCCSC(=O)CC(C)C)OCCSC(=O)CC(C)C)ccc3s2)C1` (single isomer, unassigned) [Compound 339, S,S′-(((((R or S)-(2-(((5S,8S,10aR)-8-((3S,4R or 3R,4S)-3-cyano-4-phenylpyrrolidine-1-carbonyl)-3-ethyl-6-oxodecahydropyrrolo[1,2-a][1,5]diazocin-5-yl)carbamoyl)benzo[b]thiophen-5-yl)fluoromethyl)phosphoryl)bis(oxy))bis(ethane-2,1-diyl))bis(3-methylbutane thioate)], the IC50 lay within 1 to 3 µM in experiment [1] and 0.1 to 1 µM in experiment [2].

For the compound `CC(C)(C)C(=O)SCCOP(=O)(OCCSC(=O)C(C)(C)C)C(F)(F)c1ccc2ccc(C(=O)N[C@H]3CN(CC(F)F)CC[C@H]4CC[C@@H](C(=O)N5C[C@@H](C#N)[C@H](c6ccccc6)C5)N4C3=O)cc2c1` (single isomer, unassigned) [Compound 342, S,S′-(((((7-(((5S,8S,10aR)-8-((3S,4R or 3R,4S)-3-cyano-4-phenylpyrrolidine-1-carbonyl)-3-(2,2-difluoroethyl)-6-oxodecahydropyrrolo[1,2-a][1,5]diazocin-5-yl)carbamoyl)naphthalen-2-yl)difluoromethyl)phosphoryl)bis(oxy))bis (ethane-2,1-diyl))bis(2,2-dimethylprop anethioate)], the values for the IC50 in experiment [1] and in experiment [2] were above 3 µM and 0.1 to 1 µM, respectively.

In the case of `CCN1CC[C@H]2CC[C@@H](C(=O)N3C[C@@H](C#N)[C@H](c4ccccc4)C3)N2C(=O)[C@@H](NC(=O)c2ccc3ccc(C(F)(F)P(=O)(OCCSC(=O)C(C)(C)C)OCCSC(=O)C(C)(C)C)cc3c2)C1` (single isomer, unassigned) [Compound 343, S,S′-(((((7-(((5S,8S,10aR)-8-((3S,4R or 3R,4S)-3-cyano-4-phenylpyrrolidine-1-carbonyl)-3-ethyl-6-oxodecahydropyrrolo[1,2-a][1,5]diazocin-5-yl)carbamoyl)naphthalen-2-yl)difluoromethyl)phosphoryl)bis(oxy))bis(ethane-2,1-diyl))bis(2,2-dimethylpropanethioate)], the IC50 in experiment [1] was 1 to 3 µM; in experiment [2], 0.1 to 1 µM.

In the case of `CC(C)(C)C(=O)OCOP(=O)(OCOC(=O)C(C)(C)C)C(F)(F)c1ccc2ccc(C(=O)N[C@H]3CN(CC(F)F)CC[C@H]4CC[C@@H](C(=O)N5C[C@@H](C#N)[C@H](c6ccccc6)C5)N4C3=O)cc2c1` (single isomer, unassigned) [Compound 346], the IC50 is 0.1 to 1 µM in experiment [1] and at most 0.1 µM in experiment [2].

Take `CC(C)(C)C(=O)OCOP(=O)(OCOC(=O)C(C)(C)C)C(F)(F)c1ccc2sc(C(=O)N[C@H]3CN(CC(F)F)CC[C@H]4CC[C@@H](C(=O)N5C[C@@H](C#N)[C@H](c6ccccc6)C5)N4C3=O)cc2c1` (single isomer, unassigned) [Compound 348, ((((2-(((5S,8S,10aR)-8-((3S,4R or 3R,4S)-3-cyano-4-phenylpyrrolidine-1-carbonyl)-3-(2,2-difluoroethyl)-6-oxodecahydropyrrolo[1,2-a][1,5]diazocin-5-yl)carbamoyl)benzo[b]thiophen-5-yl)difluoromethyl)phosphoryl)bis (oxy)) bis(methylene) bis(2,2-dimethylpropanoate)]: the IC50 in experiment [1] and in experiment [2] was at most 0.1 µM throughout.
